Target: E. coli nitroreductase A (NfsA) (Escherichia coli, UniProt P17117)
Experiment: steady-state kinetics; competitive inhibition versus NADPH (also reduced as a substrate)
Format: biochemical

Sequence of E. coli nitroreductase A (NfsA) (P17117 whole entry): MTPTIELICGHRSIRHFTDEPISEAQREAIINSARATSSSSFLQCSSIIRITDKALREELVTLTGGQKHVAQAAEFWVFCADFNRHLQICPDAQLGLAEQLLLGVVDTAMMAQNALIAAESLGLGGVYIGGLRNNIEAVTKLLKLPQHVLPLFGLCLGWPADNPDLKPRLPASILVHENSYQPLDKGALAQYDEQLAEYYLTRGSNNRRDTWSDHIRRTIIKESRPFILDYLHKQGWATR

CC(=O)c1ccc[n+]([C@@H]2O[C@H](COP(=O)([O-])OP(=O)(O)OC[C@H]3O[C@@H](n4cnc5c(N)ncnc54)[C@H](OP(=O)(O)O)[C@@H]3O)[C@@H](O)[C@H]2O)c1 [APADP+]
Ki: 150 ± 12 µM
